Laboratory results as given in patent US20200087326A1, “DEEP RED FLUORESCENT PROBE” (The University of Tokyo, priority 2016, published 2020).

Columns and labels:
[1] = Absorption and fluorescence spectra (photophysical properties) of compounds A-C in solutions of various Ca^2+ concentrations; assay type: physicochemical; conditions: 1 μM compound, pH 7.2 MOPS
Method: To investigate whether the synthesized compounds A, B, and C can function as Ca^2+ probes, the absorption and fluorescence spectra were measured in solutions of various Ca^2+ concentrations. FIG. 7 represents the absorption spectra (left), emission spectra (center), and fluorescence spectra (right) of 1 μM of compounds A, B, and C in the presence of various concentrations (0, 0.017, 0.038, 0.065, 0.100, 0.150, 0.225, 0.351, […]) of free Ca^2+ in pH 7.2 30 mM 3-(N-morpholino)propanesulfonic acid (MOPS) containing […] and […] (EGTA). The excitation wavelengths were 646 nm (A), 648 nm (B), and 635 nm (C).

[2] = Evaluation of compounds A-C as Ca^2+ probes (fluorescence intensity vs free Ca^2+); assay type: binding
Method: To investigate whether the synthesized compounds A, B, and C can function as Ca^2+ probes, the absorption and fluorescence spectra were measured in solutions of various Ca^2+ concentrations. FIG. 7 represents the absorption spectra (left), emission spectra (center), and fluorescence spectra (right) of 1 μM of compounds A, B, and C in the presence of various concentrations ([…])propanesulfonic acid (MOPS) containing […] and […] (EGTA). The excitation wavelengths were 646 nm (A), 648 nm (B), and 635 nm (C).

[3] = In 0 μM free [Ca^2+] buffer (absence of Ca^2+)
[4] = 39 μM vs 0 μM free [Ca^2+] buffer

| Structure (SMILES) | Φfl [1, 3] | λabs ([1]; In 0 μM free [Ca^2+] buffer) [nm] | λfl ([1]; In 0 μM free [Ca^2+] buffer) [nm] | Φfl ([1]; In 39 μM free [Ca^2+] buffer) | λabs ([1]; In 39 μM free [Ca^2+] buffer) [nm] | λfl ([1]; In 39 μM free [Ca^2+] buffer) [nm] | Activation Ratio [2, 4] | Activation Ratio ([2]; with vs without Ca^2+) [fold] |
| --- | --- | --- | --- | --- | --- | --- | --- | --- |
| Cc1ccc(N(CC(=O)O)CC(=O)O)c(OCCOc2cc(NC(=O)c3ccc(C4=C5C=CC(=[N+](C)C)C=C5[Si](C)(C)c5cc(N(C)C)ccc54)c(C(=O)O)c3)ccc2N(CC(=O)O)CC(=O)O)c1 [Compound A] | 0.10 | 646 | 673 | 0.25 | 646 | 674 | ×2.5 | 2.5 |
| Cc1ccc(N(CC(=O)O)CC(=O)O)c(OCCOc2cc(NC(=O)c3ccc(C(=O)O)c(C4=C5C=CC(=[N+](C)C)C=C5[Si](C)(C)c5cc(N(C)C)ccc54)c3)ccc2N(CC(=O)O)CC(=O)O)c1 [Compound B] | 0.04 | 648 | 671 | 0.29 | 647 | 672 | ×7.3 | – |
| Cc1ccc(N(CC(=O)O)CC(=O)O)c(OCCOc2cc(NC(=O)C/[N+](C)=C3/C=CC4=C(c5ccccc5C(=O)[O-])c5ccc(N(C)C)cc5[Si](C)(C)C4=C3)ccc2N(CC(=O)O)CC(=O)O)c1 [Compound C] | 0.01 | 637 | 664 | 0.26 | 636 | 661 | ×26 | 26 |
